Reference: patent US10088490B2, “Assay for analytes using multiple receptors” (Siemens Healthcare Diagnostics Inc., priority 2010, dated 2018)

Legend:
Format in all cases: binding
[1] = tested on: Antibody A specific for cortisol (clone 16DC/17.7, IgG1κ); experiment: LOCI competitive cortisol immunoassay, cross-reactivity screening with Biotinylated Antibody A Reagent; details: 100% A Biotinylated Antibody; steroid-stripped serum with cortisol (5 ng/dL)
Experimental: (§1) The antibodies were subjected to analytical size exclusion chromatography prior to any manipulations.
(§2) NHS-PEO4-Biotin was dissolved fresh at 10 mg/mL in Antibody Dialysis Buffer. […] The mixture was rocked at 25° C. for exactly 3 hours. A 200 mM solution of glycine was prepared by dissolving 750 mg glycine in Antibody Dialysis Buffer to a total volume of 50 mL. At the end of the 3-hour biotinylation reaction, 1.52 mL of the 200 mM glycine solution was added to the reaction mixture. The quenched reaction mixture was rocked an additional 60 minutes at 25° C.
(§3) The biotinylated antibody was then purified using preparatory HPLC using Antibody Dialysis Buffer as the mobile phase. […] This reagent was designated as the Biotinylated Antibody Reagent.
(§4) The assay used for screening purposes was conducted on the DIMENSION® VISTA® instrument (system) (Siemens Healthcare Diagnostics Inc., Newark Del.). Initially, 20 μL Biotinylated Antibody Reagent with 15 μL system water was added to the vessel. After 22 seconds, 15 μL sample with 15 μL system water were added to the vessel. After almost 4 minutes, 20 μL Chemibead Reagent with 15 μL system water were added to the vessel. Approximately 7 minutes later, 20 μL Sensibead Reagent with 135 μL system water was added to the vessel. The LOCI® read was taken after approximately 5 minutes. The assay from the first reagent addition to the final read took approximately 16 minutes. The contents of the vessel when the final read is taken were as follows: 2 ng/mL Biotinylated Antibody Reagent, 4 μg/mL Chemibead Reagent, 56 μg/mL Sensibead Reagent, and […] sample. The assay is a competitive format, which means that the greater the concentration of analyte in the sample, the smaller is the signal generation. This is because a detectable complex is formed by the Biotinylated Antibody Reagent, Chemibead Reagent, and Sensibead Reagent in the absence of analyte. The presence of analyte decreases the proportion of Biotinylated Antibody Reagent that is free to form detectable complexes.
(§5) Initial testing used Biotinylated Antibody A Reagent with the other reagents and the methodology described above to analyze the steroid-stripped serum with cortisol. The panel of 34 cross-reactants were individually added to the steroid-stripped serum with a defined concentration of cortisol (5 ng/dL) and assayed. Cross-reactivity data were calculated as follows:
(§6) [formula] The same testing was performed using Biotinylated Antibody L Reagent. The compilation of the percent cross-reactivities for the 34 compounds is referred to as the cross-reactivity profile. The apparent cortisol concentration is the cortisol value obtained when testing a sample containing cortisol and the interfering substance by the above test method that also detects the interfering substance to some degree.

[2] = tested on: Antibody L specific for cortisol (clone XM210, IgG2a); experiment: LOCI competitive cortisol immunoassay, cross-reactivity screening with Biotinylated Antibody L Reagent; details: 100% L Biotinylated Antibody; steroid-stripped serum with cortisol (5 ng/dL)
Experimental: as §1, §2, §3, §4, §5, §6

[3] = tested on: mixture of Biotinylated Antibody A Reagent and Biotinylated Antibody L Reagent; experiment: LOCI competitive cortisol immunoassay, cross-reactivity with mixtures of Biotinylated Antibody A and L Reagents; details: steroid-stripped serum with cortisol
Experimental: as §4, §5, §6
A further study was performed by mixing Biotinylated Antibody A Reagent with Biotinylated Antibody L Reagent in a 50:50 mixture; 80% Biotinylated Antibody A Reagent: 20% Biotinylated Antibody L Reagent; 75% Biotinylated Antibody A Reagent: 25% Biotinylated Antibody L Reagent; and 70% Biotinylated Antibody A Reagent: 30% Biotinylated Antibody L Reagent. […] These reagents were used to test cross-reactivity in stripped serum with cortisol.

[4] = 70% A 30% L Biotinylated Antibody
[5] = 75% A 25% L Biotinylated Antibody
[6] = 80% A 20% L Biotinylated Antibody

CC(=O)OCC(=O)[C@@]1(O)CC[C@H]2[C@@H]3CCC4=CC(=O)CC[C@]4(C)[C@@]3(F)[C@@H](O)C[C@@]21C [fluorocortisone acetate]
percent cross reactivity [1]: 35.3%
percent cross reactivity [2]: 69.3%
percent cross reactivity [3, 4]: 27.8%
percent cross reactivity [3, 5]: 20.9%
percent cross reactivity [3, 6]: 17.0%

C[C@]12CCC(=O)C=C1CC[C@@H]1[C@@H]2[C@@H](O)C[C@@]2(C)[C@H]1CC[C@]2(O)[C@H](O)CO [20β-dihydrocortisol]
percent cross reactivity [1]: 0.6%
percent cross reactivity [2]: 2.1%
percent cross reactivity [3, 4]: 1.6%
percent cross reactivity [3, 5]: 1.5%
percent cross reactivity [3, 6]: 1.3%

C[C@H]1C[C@@H]2[C@H]([C@@H](O)C[C@@]3(C)[C@H]2CC[C@]3(O)C(=O)CO)[C@@]2(C)C=CC(=O)C=C12 [6-methyl-prednisolone]
percent cross reactivity [1]: 6.4%
percent cross reactivity [2]: 10.7%
percent cross reactivity [3, 4]: 8.3%
percent cross reactivity [3, 5]: 7.5%
percent cross reactivity [3, 6]: 7.2%

C[C@]12CC[C@@H](O)C[C@H]1CC[C@@H]1[C@@H]2C(=O)C[C@@]2(C)[C@H]1CC[C@]2(O)[C@H](O)CO [β-cortolone]
percent cross reactivity [1]: 0.0%
percent cross reactivity [2]: 0.0%
percent cross reactivity [3, 4]: 0.0%
percent cross reactivity [3, 5]: 0.0%
percent cross reactivity [3, 6]: 0.0%

CC(=O)[C@H]1CC[C@H]2[C@@H]3CCC4=CC(=O)CC[C@]4(C)[C@H]3CC[C@]12C [progesterone]
percent cross reactivity [1]: 0.6%
percent cross reactivity [2]: 0.6%
percent cross reactivity [3, 4]: 0.6%
percent cross reactivity [3, 5]: 0.6%
percent cross reactivity [3, 6]: 0.6%

C[C@]12C=CC(=O)C=C1CC[C@@H]1[C@@H]2[C@@H](O)C[C@@]2(C)[C@H]1CC[C@]2(O)C(=O)CO [prednisolone]
percent cross reactivity [1]: 13.6%
percent cross reactivity [2]: 10.2%
percent cross reactivity [3, 4]: 12.4%
percent cross reactivity [3, 5]: 12.2%
percent cross reactivity [3, 6]: 12.4%

C[C@]12CC[C@@H](O)C[C@H]1CC[C@@H]1[C@@H]2C(=O)C[C@]2(C)C(=O)CC[C@@H]12 [11-ketoetiocholanolone]
percent cross reactivity [1]: 0.0%
percent cross reactivity [2]: 0.0%
percent cross reactivity [3, 4]: 0.0%
percent cross reactivity [3, 5]: 0.0%
percent cross reactivity [3, 6]: 0.0%

C[C@]12CCC(=O)C=C1CC[C@@H]1[C@@H]2C(=O)C[C@@]2(C)[C@H]1CC[C@]2(O)[C@@H](O)CO [20α-dihydrocortisone]
percent cross reactivity [1]: 1.5%
percent cross reactivity [2]: 0.2%
percent cross reactivity [3, 4]: 0.4%
percent cross reactivity [3, 5]: 0.5%
percent cross reactivity [3, 6]: 0.5%

C[C@]12CCC(=O)C=C1CC[C@@H]1[C@@H]2[C@@H](O)C[C@]2(C=O)[C@@H](C(=O)CO)CC[C@@H]12 [Aldosterone]
percent cross reactivity [1]: 0.3%
percent cross reactivity [2]: 0.3%
percent cross reactivity [3, 4]: 0.3%
percent cross reactivity [3, 5]: 0.3%
percent cross reactivity [3, 6]: 0.3%
